Article PMC9101188, “Human α-Defensin-6 Neutralizes Clostridioides difficile Toxins TcdA and TcdB by Direct Binding” (International Journal of Molecular Sciences, 2022)

How the values were obtained:
[1] = tested on: TcdB autoprotease domain; assay: In vitro autoprocessing of TcdB (InsP6-induced autoprotease activity); format: biochemical, C. difficile VPI 10463; conditions: TcdB 2 µg, InsP6 1 mM; α-def-6 3 µM, 9 µM; 1 h, 37 °C, pH 7.4; SDS-PAGE, Coomassie (n = 2)
Protocol: (§1) The flow rate was 25 µL/min. […] A representative gel is shown (n = 2). […] GAPDH served as the loading control. A representative Western blot is shown.
The effects of α-def-6 on TcdB autoprocessing by its intrinsic cysteine protease activity were analyzed. […] Inositol hexakisphosphate (1 mM, Santa Cruz Biotechnology, Dallas, TX, USA) was added to the samples to induce autoprocessing. N-Ethylmaleimide (1 mM, Sigma Aldrich by Merck KGaA, Darmstadt, Germany) served as positive control for the inhibition of TcdB-autoprocessing. The reactions were stopped by addition of a Laemmli buffer and heat denaturation (95 °C). For the analysis, the samples were electrophoresed on 8% SDS polyacrylamide gels, and proteins were visualized by Coomassie staining.

[2] = tested on: TcdB glucosyltransferase; assay: UDP-Glo glucosyltransferase assay; format: biochemical, C. difficile VPI 10463; conditions: TcdB 200 pM, recombinant Rac1 5 µM, UDP-glucose 100 µM, 1 h, 37 °C, pH 7.5, luminescence (n ≥ 3)
Protocol: as §1
UDP-Glo™ Glucosyltransferase assay with UDP-Glucose (Promega Corporation, Madison, WI, USA) was performed according to the manufacturer’s protocol. Briefly, TcdB (200 pM) was incubated in glucosylation buffer (50 mM HEPES, 100 mM KCl, 2 mM MgCl2, 1 mM MnCl2, 100 mg/L BSA, pH 7.5) with various concentrations of the respective inhibitors in a final volume of 40 µL. 5 µM recombinant Rac1 was included in the samples as a substrate. […] Castanospermine (10 mM, Santa Cruz Biotechnology, Dallas, TX, USA) served as control for inhibition of glucosyltransferase activity of TcdB. To stop the reaction, three times 10 µL of each sample were transferred to a white half area 96 well microplate (Greiner Bio-One International GmbH, Kremsmünster, Austria) combined with 10 µL of UDP Detection Reagent and mixed at 1000 rpm for 30 s on a plate shaker (Titramax 1000, Heidolph Instruments GmbH & Co. KG, Schwabach, Germany). Luminescence was recorded after 15–60 min via a Tecan infinite M1000 Pro plate reader (Tecan, Männdorf, Switzerland) with an integration time of 750 ms.

[3] = biological target: T1, TcdB-DL488 (Clostridioides difficile, UniProt P18177); assay: Aggregation of TcdB-DL488 over time in the absence of cells (fluorescence microscopy); set-up: species or system C. difficile VPI 10463; conditions: α-def-6 6 µM, TcdB-DL488 30 nM in PBS, 37 °C
T1 construct: The native toxins TcdA and TcdB from C. difficile VPI 10463 were expressed and purified; made in house; host or cells: C. difficile VPI 10463 (inferred from "native toxins")
Protocol: (§2) Cells were fixed and permeabilized. […] Scale bars correspond to 50 µm. […] TcdB was detected.
Simultaneously the same volume of PBS was exposed to DyLight^TM 488 NHS-Ester to serve as a negative control in experiments. To remove free fluorescence dye, the samples were rebuffered by passing through Zeba^TM Spin Desalting Columns via centrifugation.
Aggregation was allowed to proceed for 30 min at 37 °C. Images were taken every second for the first 5 min and every 10 s for additional 25 min. Images were processed using ImageJ.

[4] = tested on: Vero cells; assay: Aggregation of TcdB-DL488 and cell morphology in Vero cells; format: cell-based, African green monkey; conditions: TcdB-DL488 22 nM + α-def-6 6 µM, 0.5 h, 37 °C (n = 2)
Protocol: as §2
Cells were grown in their respective media under humidified conditions at 37 °C and 5% CO2. Vero cells (African green monkey kidney cells; DSMZ, Braunschweig, Germany) were maintained in Gibco minimum essential medium (MEM; Thermo Fisher Scientific, Waltham, MA, USA) supplemented with 10% fetal calf serum (FCS; Thermo Fisher Scientific, Waltham, MA, USA), 1 mM sodium pyruvate (Thermo Fisher Scientific, Waltham, MA, USA), 2 mM L-glutamine (PAN-Biotech, Aidenbach, Germany), 0.1 mM non-essential amino acids (Thermo Fisher Scientific, Waltham, MA, USA) and 100 U/mL penicillin and 100 µg/mL streptomycin (both Thermo Fisher Scientific, Waltham, MA, USA). CaCo-2 cells (human epithelial colorectal adenocarcinoma cells, HTB-37; ATCC, Manassas, VA, USA) were cultured in Gibco Dulbecco’s Modified Eagle Medium (DMEM; Thermo Fisher Scientific, Waltham, MA, USA) plus 10% FCS, 1 mM sodium pyruvate, 0.1 mM non-essential amino acids and 100 U/mL penicillin and 100 µg/mL streptomycin.
Simultaneously the same volume of PBS was exposed to DyLight^TM 488 NHS-Ester to serve as a negative control in experiments. To remove free fluorescence dye, the samples were rebuffered by passing through Zeba^TM Spin Desalting Columns via centrifugation. […]

[5] = tested on: Vero cells; format: cell-based, African green monkey
[6] = tested on: Vero cells; format: cell-based, African green monkey; remark: listed apart in the source
[7] = tested on: CaCo-2 cells
[8] = tested on: zebrafish embryos; conditions: in vivo
[9] = tested on: bacteria; conditions: cited from earlier work
From the text: The benchmark for treating CDIs is still the use of some specific antibiotics such as vancomycin, metronidazole or fidaxomicin [20]. More and more attention is also being paid to the direct inactivation of the secreted toxins, for example by using anti-toxin-antibodies such as bezlotoxumab or actoxumab. Following the approach of directly inactivating the secreted toxins and based on previous findings of our group and of others, we investigated the effects of human endogenous antimicrobial peptides on the C. difficile toxins TcdA and TcdB. […] The administration of α-def-6 protected human cells from TcdB, but also from the closely related TcdA and the clinically more relevant combination of both TcdA and TcdB. Exemplarily, the protective effect could be confirmed for TcdB in vivo using the zebrafish embryo ...

T1 sequence (P18177 whole entry): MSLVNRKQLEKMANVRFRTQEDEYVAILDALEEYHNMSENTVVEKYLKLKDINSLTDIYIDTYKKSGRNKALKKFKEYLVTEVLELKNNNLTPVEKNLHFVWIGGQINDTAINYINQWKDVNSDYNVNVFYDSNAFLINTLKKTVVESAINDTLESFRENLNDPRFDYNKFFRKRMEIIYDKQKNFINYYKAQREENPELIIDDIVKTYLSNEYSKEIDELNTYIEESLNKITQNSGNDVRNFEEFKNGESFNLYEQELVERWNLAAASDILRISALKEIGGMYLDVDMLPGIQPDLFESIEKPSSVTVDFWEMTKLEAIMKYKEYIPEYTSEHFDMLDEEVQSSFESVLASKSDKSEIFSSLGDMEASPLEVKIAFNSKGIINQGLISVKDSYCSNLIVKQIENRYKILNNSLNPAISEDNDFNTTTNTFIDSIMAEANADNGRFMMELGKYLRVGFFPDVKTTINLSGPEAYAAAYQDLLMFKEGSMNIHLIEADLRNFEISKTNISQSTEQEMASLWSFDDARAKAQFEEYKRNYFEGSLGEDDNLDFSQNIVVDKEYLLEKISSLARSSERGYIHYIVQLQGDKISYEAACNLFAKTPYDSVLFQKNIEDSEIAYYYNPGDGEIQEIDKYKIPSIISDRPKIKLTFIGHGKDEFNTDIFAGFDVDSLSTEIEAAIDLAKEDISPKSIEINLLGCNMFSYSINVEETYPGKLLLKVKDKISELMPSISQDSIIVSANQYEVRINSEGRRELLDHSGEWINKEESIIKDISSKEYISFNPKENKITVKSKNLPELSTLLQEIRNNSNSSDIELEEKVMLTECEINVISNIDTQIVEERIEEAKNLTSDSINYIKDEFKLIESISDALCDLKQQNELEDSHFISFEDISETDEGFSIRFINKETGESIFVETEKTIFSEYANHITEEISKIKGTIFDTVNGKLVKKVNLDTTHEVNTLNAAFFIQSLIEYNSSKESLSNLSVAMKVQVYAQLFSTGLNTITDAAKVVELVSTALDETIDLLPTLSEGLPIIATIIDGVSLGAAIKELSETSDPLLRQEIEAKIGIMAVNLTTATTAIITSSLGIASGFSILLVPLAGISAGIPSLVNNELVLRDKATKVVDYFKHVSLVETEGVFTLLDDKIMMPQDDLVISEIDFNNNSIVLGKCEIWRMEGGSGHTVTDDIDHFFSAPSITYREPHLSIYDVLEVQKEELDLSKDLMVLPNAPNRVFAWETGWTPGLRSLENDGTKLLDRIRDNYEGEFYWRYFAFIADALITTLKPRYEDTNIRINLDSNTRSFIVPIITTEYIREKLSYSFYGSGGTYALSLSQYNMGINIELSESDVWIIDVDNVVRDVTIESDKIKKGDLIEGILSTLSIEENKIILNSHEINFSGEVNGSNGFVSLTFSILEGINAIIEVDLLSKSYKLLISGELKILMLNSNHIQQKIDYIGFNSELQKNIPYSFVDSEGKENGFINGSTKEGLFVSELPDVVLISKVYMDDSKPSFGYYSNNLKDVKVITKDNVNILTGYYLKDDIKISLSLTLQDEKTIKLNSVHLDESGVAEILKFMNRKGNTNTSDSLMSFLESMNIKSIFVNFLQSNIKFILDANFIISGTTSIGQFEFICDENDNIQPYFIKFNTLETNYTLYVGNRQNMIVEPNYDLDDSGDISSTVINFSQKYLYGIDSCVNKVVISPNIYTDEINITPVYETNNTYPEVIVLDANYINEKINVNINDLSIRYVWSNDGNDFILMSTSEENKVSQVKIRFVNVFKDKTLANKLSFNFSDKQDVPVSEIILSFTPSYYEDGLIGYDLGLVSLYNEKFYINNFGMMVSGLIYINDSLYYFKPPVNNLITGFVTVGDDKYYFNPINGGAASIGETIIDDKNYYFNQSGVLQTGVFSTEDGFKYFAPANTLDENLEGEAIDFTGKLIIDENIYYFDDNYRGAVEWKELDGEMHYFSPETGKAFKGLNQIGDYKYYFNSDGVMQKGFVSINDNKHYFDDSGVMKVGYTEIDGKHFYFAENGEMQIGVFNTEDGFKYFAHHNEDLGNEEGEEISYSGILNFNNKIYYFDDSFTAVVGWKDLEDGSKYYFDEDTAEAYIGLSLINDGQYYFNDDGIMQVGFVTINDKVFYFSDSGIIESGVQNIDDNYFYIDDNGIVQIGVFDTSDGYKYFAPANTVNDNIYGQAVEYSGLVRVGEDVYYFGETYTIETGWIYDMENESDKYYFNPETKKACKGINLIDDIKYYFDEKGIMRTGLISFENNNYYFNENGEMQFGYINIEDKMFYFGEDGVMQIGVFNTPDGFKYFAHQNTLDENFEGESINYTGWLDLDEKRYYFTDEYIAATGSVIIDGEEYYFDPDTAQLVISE

CC[C@H](C)[C@@H]1NC(=O)CNC(=O)[C@H](CCSC)NC(=O)[C@H](C(C)C)NC(=O)[C@H]([C@@H](C)O)NC(=O)[C@@H]2CSSC[C@@H]3NC(=O)[C@H](Cc4c[nH]cn4)NC(=O)[C@@H](NC(=O)[C@@H](NC(=O)[C@H](Cc4ccccc4)NC(=O)[C@H](C)N)[C@@H](C)O)CSSC[C@@H](C(=O)N[C@@H](CC(C)C)C(=O)O)NC(=O)[C@H](CSSC[C@H](NC(=O)[C@H](CO)NC(=O)[C@H](CCCNC(=N)N)NC(=O)[C@H](CCCNC(=N)N)NC3=O)C(=O)N[C@@H](Cc3ccc(O)cc3)C(=O)N[C@@H](CO)C(=O)N[C@@H]([C@@H](C)O)C(=O)N[C@@H](CCC(=O)O)C(=O)N[C@@H](Cc3ccc(O)cc3)C(=O)N[C@@H](CO)C(=O)N[C@@H](Cc3ccc(O)cc3)C(=O)NCC(=O)N[C@@H]([C@@H](C)O)C(=O)N2)NC(=O)[C@H](Cc2ccccc2)NC(=O)[C@H](CCCNC(=N)N)NC(=O)[C@H](Cc2c[nH]cn2)NC(=O)[C@H](CC(N)=O)NC1=O [α-def-6]
release of the glucosyltransferase domain by the autoprotease domain (effect of substance) [1]: not affected
inhibition of glucosyltransferase activity of TcdB [2]: not able to inhibit glucosyltransferase activity
time of formation of toxin-defensin aggregates [3]: within a few seconds to minutes
formation of toxin-defensin complexes ([3]; 0.5 h, no cells (n ≥ 2)): very fast and distinct formation of large toxin-defensin complexes
morphological changes of TcdB-DL488-treated cells [4]: no morphological changes
toxin-defensin aggregates in the presence of cells [4]: toxin-defensins-aggregates were also visible
inhibition of toxin effects on cells, TcdA [5]: clear inhibition
protection of cells against TcdA [5]: clear protection
inhibition of toxin effects on cells, TcdA + TcdB [6]: clear inhibition
protection of cells against TcdA + TcdB [6]: clear protection
amount of rounded CaCo-2 cells, TcdA [7]: reduced amount of rounded CaCo-2 cells was visible for at least 6 h
effect on TcdB-induced cytotoxicity and cardiotoxicity [8]: very efficiently reversed both the cytotoxic and cardiotoxic effects of TcdB
toxicity of α-def-6 alone [8]: did not show any toxicity
microbiocidal activity ([9]; ref [27]): negligible microbiocidal activity
biocidal / antimicrobial activity ([9]; ref [46]): surprisingly low antimicrobial activity
